For the assay, the target named is T1, human recombinant LPA2 (Homo sapiens, UniProt Q9HBW0).
T1 construct: expressed in transfected cells; host or cells: CHO (CHO-hLPA2 cell line)
T1 sequence (Q9HBW0 whole entry): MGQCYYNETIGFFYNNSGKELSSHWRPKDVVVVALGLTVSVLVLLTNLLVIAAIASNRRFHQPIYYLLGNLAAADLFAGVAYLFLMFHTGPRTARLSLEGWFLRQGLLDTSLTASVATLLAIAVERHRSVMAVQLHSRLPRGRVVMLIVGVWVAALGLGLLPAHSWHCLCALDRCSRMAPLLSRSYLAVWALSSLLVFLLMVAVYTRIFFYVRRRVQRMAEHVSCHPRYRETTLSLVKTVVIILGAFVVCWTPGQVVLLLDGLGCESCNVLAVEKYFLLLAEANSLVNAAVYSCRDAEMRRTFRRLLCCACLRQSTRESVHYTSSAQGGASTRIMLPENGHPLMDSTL
Briefly: FLIPR calcium mobilization assay, LPA2 antagonism in CHO-hLPA2 cells. Format: cell-based. The following applies: human recombinant LPA2 in CHO cells, LPA EC80 stimulation, 30 min pre-incubation; read-out: LPA2 IC50. How it is done:
The effectiveness of compounds of the present invention as LPA2 antagonist can be determined at the human recombinant LPA2 expressed in CHO cells, using a FLIPR assay in 384 well format.
CHO-hLPA2 cell lines are cultured in a humidified incubator at 5% CO2 in DMEM/F-12 (1:1) MIXTURE with 2 mM Glutamax, supplemented with 10% of Foetal Bovine Serum, 1 mM Sodium Pyruvate, 11 mM Hepes and 1× Penicillin/Streptomycin. CHO hLPA2 cells are seeded into black walled clear-bottom 384-well plates (#781091, Greiner Bio-One GmbH) at a density of 7,500 cells per well in 50 μl culture media and grown overnight in a 37° C. humidified CO2-incubator. Serial dilutions (1:3 or 1:4, 11 points CRC) of compounds are performed in 100% DMSO at 200× the final concentration. The compounds are diluted 1:50 prior to the experiment with Assay Buffer (20 mM HEPES, 145 mM NaCl, 5 mM KCl, 5.5 mM glucose, 1 mM MgCl2 and 2 mM CaCl2, pH 7.4 containing 0.01% Pluronic F-127) to obtain a solution corresponding to […] the final concentration in the assay (4×, 2% DMSO). The final concentration of DMSO in the assay will be 0.5% in each well. Medium is removed by aspiration and cells are then incubated with 30 μl of a loading solution containing 5 μM of the cytoplasmic Ca2+ indicator Cal-520 AM in Assay Buffer containing 2.5 mM probenecid for 30 min at 37° C. incubator (cell loading). The loaded cell plates are transferred into the FLIPR instrument and calcium responses are monitored during the on-line addition protocols. For testing of compounds, after the cell loading, 10 μl/well of 4× antagonists' solution was added onto the cells. After 30 min pre-incubation (at 37° C.), 10 μl/well of 5× concentrated LPA EC80 was added and Ca2+ mobilization responses was followed during the on-line addition protocol. Intracellular peak fluorescence values subtracted by baseline fluorescence are exported and analysed to determine IC50 values, respectively. The calcium response is expressed as percentage of the maximal inhibition of the EC80 agonist response.
The raw data (peak height expressed as relative fluorescence units) are normalized and transformed into “percent of inhibition”. Curve fitting and pIC50 (−Log IC50) estimations are carried out using a four-parameter logistic model using XLfit Software.
With `COC(=O)Nc1nc(C)c(S(=O)(=O)N2CCN(C[C@H](C)Nc3ncnc4c(C)csc34)CC2)s1` [Example 20, methyl N-[4-methyl-5-({4-[(2S)-2-({7-methylthieno[3,2-d]pyrimidin-4-yl}amino)propyl]piperazin-1-yl}sulfonyl)-1,3-thiazol-2-yl]carbamate], the IC50 was < 1000 nM. For `Cc1csc2c(N[C@@H](C)CN3CCN(S(=O)(=O)c4ccc(NC(=O)c5ccncc5)cc4)CC3)ncnc12` [Example 16, N-[4-({4-[(2S)-2-({7-methylthieno[3,2-d]pyrimidin-4-yl}amino)propyl]piperazin-1-yl}sulfonyl)phenyl]pyridine-4-carboxamide], the IC50 was < 1000 nM. The same measure for `Cc1csc2c(N[C@@H](C)CN3CCN(S(=O)(=O)c4ccc(-c5ccccn5)s4)CC3)ncnc12` [Example 30, 7-methyl-N-[(2S)-1-(4-{[5-(pyridin-2-yl)thiophen-2-yl]sulfonyl}piperazin-1-yl)propan-2-yl]thieno[3,2-d]pyrimidin-4-amine]: < 1000 nM; for `COC(=O)Nc1nc(C)c(S(=O)(=O)N2CCN(C[C@H](C)Nc3nc(Cl)nc4c(C(F)(F)F)csc34)CC2)s1` [Example 32, methyl N-[5-({4-[(2S)-2-{[2-chloro-7-(trifluoromethyl)thieno[3,2-d]pyrimidin-4-yl]amino}propyl]piperazin-1-yl}sulfonyl)-4-methyl-1,3-thiazol-2-yl]carbamate]: < 1000 nM. The same measure for `Cc1csc2c(N[C@@H](C)CN3CCN(S(=O)(=O)c4cnn(-c5ccc(C(F)(F)F)cn5)c4)CC3)ncnc12` [Example 25, 7-methyl-N-[(2S)-1-[4-({1-[5-(trifluoromethyl)pyridin-2-yl]-1H-pyrazol-4-yl}sulfonyl)piperazin-1-yl]propan-2-yl]thieno[3,2-d]pyrimidin-4-amine]: < 1000 nM; for `CC(=O)Nc1ncc(S(=O)(=O)N2CCN(C[C@H](C)Nc3nc(C4CC4)nc4c(C)csc34)CC2)s1` [Example 22, N-[5-({4-[(2S)-2-({2-cyclopropyl-7-methylthieno[3,2-d]pyrimidin-4-yl}amino)propyl]piperazin-1-yl}sulfonyl)-1,3-thiazol-2-yl]acetamide]: < 1000 nM. As for `COC(=O)Nc1nc(C)c(S(=O)(=O)N2CCN(C[C@H](C)Nc3nc(C4CC4)nc4c(C(F)(F)F)csc34)CC2)s1` [Example 34, methyl N-[5-({4-[(2S)-2-{[2-cyclopropyl-7-(trifluoromethyl)thieno[3,2-d]pyrimidin-4-yl]amino}propyl]piperazin-1-yl}sulfonyl)-4-methyl-1,3-thiazol-2-yl]carbamate], the figure is < 10 nM; as for `CC(=O)Nc1cc(F)c(S(=O)(=O)N2CCN(C[C@H](C)Nc3ncnc4c(C)csc34)CC2)cc1Cl` [Example 18, N-[2-chloro-5-fluoro-4-({4-[(2S)-2-({7-methylthieno[3,2-d]pyrimidin-4-yl}amino)propyl]piperazin-1-yl}sulfonyl)phenyl]acetamide], < 1000 nM; as for `Cc1csc2c(N[C@@H](C)CN3CCN(S(=O)(=O)c4ccc(Br)c(Cl)c4)CC3)ncnc12` [Example 11, N-[(2S)-1-[4-(4-bromo-3-chlorobenzenesulfonyl)piperazin-1-yl]propan-2-yl]-7-methylthieno[3,2-d]pyrimidin-4-amine], < 1000 nM. In the case of `CC(=O)Nc1nc(C)c(S(=O)(=O)N2CCN(C[C@H](C)Nc3nc(C4CC4)nc4c(C)csc34)CC2)s1` [Example 35, N-[5-({4-[(2S)-2-({2-cyclopropyl-7-methylthieno[3,2-d]pyrimidin-4-yl}amino)propyl]piperazin-1-yl}sulfonyl)-4-methyl-1,3-thiazol-2-yl]acetamide], the IC50 was 10 to 100 nM.

For `CCc1nc(N[C@@H](C)CN2CCN(S(=O)(=O)c3sc(NC(=O)OC)nc3C)CC2)c2scc(C)c2n1` [Example 38, methyl N-[5-({4-[(2S)-2-({2-ethyl-7-methylthieno[3,2-d]pyrimidin-4-yl}amino)propyl]piperazin-1-yl}sulfonyl)-4-methyl-1,3-thiazol-2-yl]carbamate], the IC50 lay in the range of 10 to 100 nM.

For the origin of these results see patent US20230061417A1, “THIENOPYRIMIDINE DERIVATIVES AS LPA RECEPTOR 2 INHIBITORS” (CHIESI FARMACEUTICI S.P.A., priority 2019, published 2023).
